≈ marks a conversion by molar mass, not a printed value. Entries after “also recorded” stand apart in the source; their conditions may differ. Where a name gives a salt, the structure may show the parent alone.
Experiments:
[1] = system: L. mexicana infected macrophages; assay: Infected macrophage assay, L. mexicana; assay type: cell-based; settings: for Macrophage IC50 L. mexicana: J774.G8 mouse macrophages, 72 hours, 33° C., number of infected macrophages inhibited by 50%
Experimental: The susceptibilities of L. mexicania infected macrophages to candidate compounds were determined by the following assay.
(§1) A one week old, confluent culture of J774.G8 mouse macrophages was washed three times with Hank's Balanced Salt Solution (HBSS) without calcium and magnesium (Sigma, St. Louis, Mo.). The J774.G8 mouse macrophages are a continuous cell line that have been cited in the literature as supporting continuous and intracellular growth of various Leishmania sp. and they have been used for drug assays against intracellular parasites, Trypanosoma cruzi and Leishmania sp. See Alcina, A., et al. (1988) Antimicrobial Agents & Chemotherapy. 32(9):1412-5; Mendez, S., et al. (1996) International Journal for Parasitology 26(6):619-22; Hodgkinson, V. H., et al. (1996) Experimental Parasitology 83(1):94-105; and Chang, K. P. (1980) Science 209(4462): 1240-42, which are herein incorporated by reference.
(§2) The macrophages were then incubated at 37° C. in a humidified 5% CO2 incubator for 15 minutes with a Trypsin-EDTA (0.05% Trypsin, 0.53 mM EDTA 4Na) solution (GIBCO BRL, Grand Island, N.Y.). The macrophages were then detached with a cell scraper and suspended by vigorous pipetting. The macrophages were then mixed with a late log phase culture of L. mexicana promastigotes to yield a solution comprising about 5×10^5 macrophages per ml and about 25×10^5 promastigotes per ml in DMEM (pH 7.4) supplemented with 10% heat inactivated fetal calf serum comprising penicillin (50 units/ml) and streptomycin (50 μg/ml).
(§3) The macrophage-parasite mixture was then pipetted into 96-well flat-bottom plates (Costar, Cambridge, Mass.) at 200 μl per well. Infection and attachment of the macrophages was allowed to occur over a period of about 48 hours at 33° C. in a humidified 5% CO2 incubator. The wells were washed three times with HBSS to remove extracellular parasites. Each well was then treated with serial dilutions of a given candidate compound in DMEM.
(§4) The treated plate was incubated for about 72 hours at 33° C. in a humidified 5% CO2 incubator. The macrophages in each well were detached into the DMEM used for the incubation by pipetting and scraping with the tip of a microliter pipettor. 75 μl of the cell suspension was transferred to a cytospin funnel and the cells were centrifuged onto microscope slides at 800 rpm for 5 minutes using a Cytospin centrifuge (Shandon, Pittsburgh, Pa.).
(§5) The slides were air dried and then fixed in methanol for 5 seconds. After the methanol evaporated, the slides were stained with 5% Giemsa stain (Fisher, Suwanee, Ga.) in phosphate buffer comprising 3.1 mM potassium phosphate dibasic and 8.3 mM sodium phosphate monobasic for 45 minutes. After thorough washing with flowing tap water, the slides were air dried and then viewed by oil immersion microscopy to determine percentage of infected cells. A cell was considered to be infected if it comprised one or more amastigote with a visible parasite nucleus and kinetoplast. Counting parasites and counting infected cells provided similar results when determining IC50 values.
(§6) The IC50 values (the concentration of the compound that inhibited the number of infected macrophages by 50%) were determined with the software program TableCurve (SPSS Science, Chicago, Ill.) using the following dose-response equation: y=a+b/(1+(x/c)^d), where x=the drug concentration, y=absorbance at 490 nm, a=upper asymptote, b=slope, c=IC50 and d=lower asymptote. FIG. 3 provides the graphical data obtained for compound 1DWB667 as an example.

[2] = system: L. donovani infected macrophages; assay: Infected macrophage assay, L. donovani; assay type: cell-based; settings: J774.G8 mouse macrophages, 72 hours, 37° C.; number of infected macrophages inhibited by 50%
Description: as §1, §2, §3, §4, §5, §6
The susceptibility of L. donovani infected macrophages to the compounds of the present invention were preformed by a modified protocol for L. mexicana infected macrophages above, wherein all incubations of the parasite infected macrophages were done at 37° C. rather than 33° C. FIG. 4 provides the graphical data for compound 1DWB667 as an example.

[3] = system: L. donovani axenic amastigote-like parasites; assay: Axenic amastigote assay (CellTiter 96 tetrazolium dye growth assay); assay type: cell-based; settings: 72 hours, 37° C., pH 5.5, concentration that inhibited parasite growth by 50%
Experimental: The growth susceptibilities of L. donovani axenic amastigote-like parasites to the candidate compounds were measured in a three day assay using the tetrazolium dye-based CellTiter 96 Aqueous Non-Radioactive Cell Proliferation Assay Kit (Promega, Madison, Wis.) according to Werbovetz, K., et al. (1999) Mol. Biochem. Parasitol. 98:53-65, which is herein incorporated by reference. Pentamidine, at a starting concentration of 100 μM, and serial dilutions thereof were used as controls. Specifically, L. donovani axenic amastigotes, as described by Joshi, M. et al. (1993) Mol. Biochem. Parasitol. 58:345-354, which is herein incorporated by reference, were seeded at 10^6 cells/ml in 96-well flat-bottomed plates (Costar, Cambridge, Mass.) and maintained as axenic amastigote-like forms by serial passage at 37° C. in a humid atmosphere comprising 5% CO2 using a slightly modified potassium-based version of the medium described by Joshi, M. et al. (1993) in the presence or absence of a given candidate compound. The medium comprised 15 mM KCl, […] KH2PO4, 10 mM K2HPO4, 0.5 mM MgSO4, and 24 mM NaHCO3 to give a final potassium concentration of […]. The medium was supplemented with 20% fetal bovine serum and was brought to pH 5.5. The final volume in each well was 60 μl. The plates were incubated at 37° C. for 72 hours, then 12 μl of the aqueous CellTiter solution from the kit (Promega, Madison, Wis.) was added to each well according to the instructions of the manufacturer. The plates were returned to the incubator for about 2 to about 3 hours. Then the absorbance of each well was measured at 490 nm using a SpectraMax Plus microplate reader (Molecular Devices, Sunnyvale, Calif.).
The results for each candidate compound may be found in the FIG. 1. The IC50 values (the concentration of the agent that inhibited parasite growth by 50%) for each candidate compound were determined for axenic amastigotes with the aid of the program SoftMax Pro (Molecular Devices, Sunnyvale, Calif.) using the following dose response equation: y=((a−d)/1+(x/c)^b)+d, wherein x=drug concentration; y=absorbance at 490 nm; a=upper asymptote; b=slope; c=IC50; and d=lower asymptote. FIG. 2 is the graphical data obtained for compound 1DWB667 as an example.

J774.G8 macrophages = assay: Macrophage toxicity assay (sulforhodamine B); assay type: cell-based, mouse; settings: Mus musculus, 72 hours, 37° C., macrophage growth inhibited by 50%
Experimental: The toxicity of the candidate compounds on J774.G8 macrophages was measured using a sulforhodamine B (Molecular Probes, Eugene, Oreg.) based dye assay.
Specifically, a confluent culture of macrophages in a T75 culture flask was harvested by replacing the growth medium (DMEM supplemented with 10% heat inactivated fetal calf serum, 50 units/ml penicillin, and 50 μg/ml streptomycin) with 25 ml of fresh medium and scraping the cells from the bottom of the culture flask. Cell clumps were broken up by gentle pipetting and the cell suspension was transferred to a 50 ml conical centrifuge tube. The cells were then pelleted by centrifugation at 1,000 rpm at 4° C. for 5 minutes. The supernatant was then removed and the cells were resuspended in 15 ml DMEM.
After counting an aliquot of the cell suspension, the macrophages were then diluted to about 1×10^5 cells/ml in DMEM and 180 μl was added to each well of a 96 well tissue culture plate Then 20 μl serial dilutions of a given candidate compound was added. The plate was then placed in a 37° C. humidified 5% CO2 incubator and incubated for 72 hours. Then 50 μl of 50% TCA was added to each well to fix the proteins. The plate was then incubated for at least 1 hour at 4° C.
The liquid contents of the wells were discarded and the wells were washed five times with 200 μl of distilled water. After the final wash the plate was allowed to air dry for 20 minutes. 100 μl of the sulforhodamine B dye (0.4% dye in 1% acetic acid) was added. The plate was then incubated at room temperature for 20 minutes. After discarding the dye solution, the wells were washed five times with 200 μl of 1% acetic acid and then allowed to air dry for 20 minutes. At this time, 50 μl of 10 mM TRIS base was added. After a few minutes of incubation, the absorbance of each well at 490 nm was measured in a SpectraMax Pro microplate reader (Molecular Devices, Sunnyvale, Calif.).
The IC50 values for each candidate compound (the concentration of the agent that inhibited macrophage growth by 50%) were determined for the macrophages with the aid of the program SoftMax Pro (Molecular Devices, Sunnyvale, Calif.) using the following dose response equation: y=((a−d)/1+(x/c)^b)+d, where x=drug concentration; y=absorbance at 490 nm; a=upper asymptote; b=slope; c=IC50; and d=lower asymptote. FIG. 5 provides the graphical data for compound 1DWB667 as an example.

L. donovani L82 = assay: In vivo assay, murine visceral model of leishmaniasis; design: species or system Leishmania donovani; settings: BALB/c mice; for % inhibition ± S.E.M.: Table 4

## 2,5-Bis[2,6-dimethyl-4-(2-pyridylimino)aminophenyl]furan [DB 714]
[1]
  Macrophage IC50 L. mexicana: 0.359 µg/mL
[2]
  Macrophage IC50 L. donovani: 0.246 µg/mL
[3]
  Axenic Amastigote IC50 L. donovani: 0.290 µg/mL

## 2,5-Bis[2-methyl-4-(2-quinolylimino)aminophenyl]furan [DB716]
[3]
  Axenic Amastigote IC50 L. donovani: about 10 μg/ml

## N=C(Nc1ccc(-c2ccc(-c3ccc(NC(=N)c4ccccc4)cc3)o2)cc1)c1ccccc1 (as salt: hydrochloride) [DB613, 2,5-Bis[4-(benzimidoylamino)phenyl]furan]
other
  melting point: 312 to 314.5 °C

## C[C@@H]1[C@H](O)[C@@H](C)/C=C/C=C/C=C/C=C/C=C/C=C/C=C/[C@H](O[C@@H]2O[C@H](C)[C@@H](O)[C@H](N)[C@@H]2O)C[C@@H]2O[C@](O)(C[C@@H](O)C[C@@H](O)[C@H](O)CC[C@@H](O)C[C@@H](O)CC(=O)O[C@H]1C)C[C@H](O)[C@H]2C(=O)O [Amphotericin B, reference compound]
[1]
  Macrophage IC50 L. mexicana: 0.032 µg/mL
[2]
  Macrophage IC50 L. donovani: 0.024 µg/mL
[3]
  Axenic Amastigote IC50 L. donovani: 0.342 µg/mL

## c1cc(-c2ccc(-c3ccc(N=NC4CCCCC4)cc3)o2)ccc1N=NC1CCCCC1 [DB656, 2,5-Bis[4-(cyclohexylimino)aminophenyl]furan]
other
  melting point: 242 to 243 °C (dec.)

## N=C(N)c1ccc(OCCCCCOc2ccc(C(=N)N)cc2)cc1 [Pentamidine, reference compound]
[1]; Leishmania mexicana, Macrophage, in Mus musculus, 72 h, read-out: Macrophage IC50 L. mexicana
  IC50: > 12.5 µg/mL
[1]; in vitro, cutaneous strain
  reduction of parasite burden in L. mexicana infected macrophages (in words): ineffective in the macrophage model; also recorded: did not reduce the parasite burden
J774.G8 macrophages
  IC50: 9.96 µg/mL (≈ 29.3 µM)
L. donovani L82; Table 3, 5 mg/kg i.v. × 5 (doses reduced by half, see footnotes a, c)
  % Inhib. ± SEM: 30.5 ± 5.0%
L. donovani L82; 4 mg/kg i.v. × 5
  % inhibition ± S.E.M.: 16.96 ± 3.3%
L. donovani L82; Table 5, 4 mg/kg i.v. × 5
  % Inhib. ± SEM: 30.6 ± 5.2%
[3]; Leishmania donovani
  IC50: 1.22 µg/mL (≈ 3.58 µM)

## N=C(N)Nc1ccc(-c2ccc(-c3ccc(NC(=N)N)cc3)s2)cc1 [DB686, 2,5-Bis(4-guanidinophenyl)thiophene]
L. donovani L82; 10 mg/kg p.o. × 5
  % inhibition ± S.E.M.: 34.91 ± 8.04%
